Data on 38 compounds can be found in patent US20230339890A1, “AMINO ALCOHOL COMPOUNDS AND USES THEREOF” (Kineta, Inc., priority 2020, published 2023).

The term IC50 denotes the concentration needed to halve the response being measured.

Sequence of Recombinant human CYP51A1 (lanosterol-14a-demethylase) (Q16850 whole entry): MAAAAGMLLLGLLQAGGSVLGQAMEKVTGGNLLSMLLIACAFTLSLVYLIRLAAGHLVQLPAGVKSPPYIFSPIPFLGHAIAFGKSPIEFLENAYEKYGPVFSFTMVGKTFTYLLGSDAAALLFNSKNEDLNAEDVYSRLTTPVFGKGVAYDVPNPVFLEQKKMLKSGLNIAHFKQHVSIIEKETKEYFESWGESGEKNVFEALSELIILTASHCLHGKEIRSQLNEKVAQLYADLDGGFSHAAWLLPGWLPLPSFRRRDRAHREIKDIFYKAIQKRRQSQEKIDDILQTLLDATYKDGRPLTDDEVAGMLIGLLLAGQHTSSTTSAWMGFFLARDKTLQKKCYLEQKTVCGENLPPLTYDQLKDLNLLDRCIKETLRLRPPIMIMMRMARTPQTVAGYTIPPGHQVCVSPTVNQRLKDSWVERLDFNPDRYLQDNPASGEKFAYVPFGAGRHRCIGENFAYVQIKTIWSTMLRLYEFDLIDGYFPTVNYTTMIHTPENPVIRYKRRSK

This assay concerns the target Recombinant human CYP51A1 (lanosterol-14a-demethylase) (Homo sapiens (Human), UniProt Q16850). The assay can be described thus: Inhibition of CYP51A1, fluorescent substrate BOMCC. It counts as biochemical. To be noted: recombinant human CYP51A1 coexpressed with CYP reductase in bacterial membranes, 8-point concentration-response, read-out: CYP51 IC50. An excerpt: Method: Recombinant human CYP51A1 (lanosterol-14a-demethylase) enzyme was coexpressed with CYP reductase in bacterial membranes and the fluorescent substrate BOMCC (a nonnatural substrate that causes increases in fluorescence upon CYP51A1-dependent demethylation) was used to obtain 8-point dose concentration-response curves for each compound.
Regarding `CCCN(CC(O)c1ccnnc1)C(=O)Cc1ccc(Cl)c(Cl)c1` (centres unmarked) [compound 19], the 50% inhibitory concentration (IC50) is above 1000 nM.
Then `CCN(C[C@@H](O)c1cccnc1)C(=O)Cc1ccc(Cl)c(Cl)c1` [compound 20, 2-(3,4-dichlorophenyl) -N-ethyl-N-[(2S)-2-hydroxy-2-(3-pyridyl)ethyl]ac etamide], with 100 to 1000 nM; and `CCCN(C[C@@H](O)c1cccnc1)C(=O)Cc1ccc(OC(F)(F)F)c(Cl)c1` [compound 21, 2-[3-chloro-4-(trifluoromethoxy)phenyl]-N-[(2S)-2-hydroxy-2-(3-pyridyl)ethyl]-N-propyl-acetamide], with at most 100 nM.
Then `CCC(=O)N(C[C@@H](O)c1cccnc1)C1Cc2cc(Cl)c(Cl)cc2C1` [compound 22, N-(5,6-dichloroindan-2-yl)-N-[(2S)-2-hydroxy-2-(3-pyridyl)ethyl]propanamide], with 100 to 1000 nM.
Then `CCC(=O)N(C[C@H](O)c1cccnc1)C1Cc2cc(Cl)c(Cl)cc2C1` [compound 23, N-(5,6-dichloroindan-2-yl)-N-[(2R)-2-hydroxy-2-(3-pyridyl)ethyl]propanamide], with at most 100 nM; and `CCCN(C[C@@H](O)c1cccnc1)C(=O)Cc1ccc(Cl)c(C#N)c1` [compound 24, 2-(4-chloro-3-cyano-phenyl)-N-[(2S)-2-hydroxy-2-(3-pyridyl)ethyl]-N-propyl-acetamide], with 100 to 1000 nM.
Turning to `O=C(Cc1ccc(Cl)c(Cl)c1)N(CC1COC1)C[C@@H](O)c1cccnc1` [compound 25, 2-(3,4-dichlorophenyl) -N-[(2S)-2-hydroxy-2-(3-pyridyl)ethyl]-N-(oxetan-3-ylmethyl)acetamide], the IC50 lay within 100 to 1000 nM.
Then `O=C(Cc1ccc(Cl)c(Cl)c1)N(C[C@@H](O)c1cccnc1)C1COC1` [compound 26, 2-(3,4-dichlorophenyl) -N-[(2S)-2-hydroxy-2-(3-pyridyl)ethyl]-N-(oxetan-3-yl)acetamide], with 100 to 1000 nM; and `CC1(CN(C[C@@H](O)c2cccnc2)C(=O)Cc2ccc(Cl)c(Cl)c2)CC1` [compound 27, 2-(3,4-dichlorophenyl) -N-[(2S)-2-hydroxy-2-(3-pyridyl)ethyl]-N-[(1-methylcyclopropyl)methyl]acetamide], with at most 100 nM.
Then `COC(=O)N(CCc1ccc(C(F)(F)F)nc1)CC(O)c1cccnc1` (centres unmarked) [compound 28, methyl N-[2-hydroxy-2-(3-pyridyl)ethyl]-N-[2-[6-(trifluoromethyl)-3-pyridyl]ethyl]carbamate], with above 1000 nM; and `CC(C)N(C[C@@H](O)c1cccnc1)C(=O)Nc1ccc(Cl)c(Cl)c1` [compound 29, 3-(3,4-dichlorophenyl)-1-[(2S)-2-hydroxy-2-(3-pyridyl)ethyl]-1-isopropyl-urea], with above 1000 nM.
Then `CCCN(CC(O)c1cccnc1)C(=O)Cc1ccc(Cl)cc1F` (centres unmarked) [compound 31, 2-(4-chloro-2-fluoro-phenyl)-N-[2-hydroxy-2-(3-pyridyl)ethyl]-N-propyl-acetamide], with at most 100 nM.
Consider `CCCN(CC(O)c1cccnn1)C(=O)Cc1ccc(C(F)(F)F)nc1` (centres unmarked) [compound 32, N-(2-hydroxy-2-pyridazin-3-yl-ethyl)-N-propyl-2-[6-(trifluoromethyl)-3-pyridyl]acetamide], for which the concentration for half-maximal inhibition (IC50) was 100 to 1000 nM.
Then `NCCCCCN(CC(O)c1cccnc1)C(=O)Cc1ccc(Cl)c(Cl)c1` (centres unmarked) [compound 33, N-(5-aminopentyl)-2-(3,4-dichlorophenyl)-N-[2-hydroxy-2-(3-pyridyl)ethyl]acet amide], with above 1000 nM.
Then `CCC(=O)N(CC1Cc2cc(Cl)c(Cl)cc2C1)C[C@@H](O)c1cccnc1` [compound 34, N-[(5,6-dichloroindan-2-yl)methyl]-N-[(2S)-2-hydroxy-2-(3-pyridyl)ethyl]propanamide], with 100 to 1000 nM.
Then `CCCN(CC(O)c1cncc(Cl)c1)C(=O)Cc1ccc(Cl)c(Cl)c1` (centres unmarked) [compound 37, N-[2-(5-chloro-3-pyridyl)-2-hydroxy-ethyl]-2-(3,4-dichlorophenyl)-N-propyl-acetamide], with above 1000 nM; and `CCCN(C[C@@H](O)c1cccnc1)C(=O)Cc1ccc(C(F)(F)F)nn1` [compound 38, N-[(2S)-2-hydroxy-2-(3-pyridyl)ethyl]-N-propyl-2-[6-(trifluoromethyl)pyridazin-3-yl]acetamide], with 100 to 1000 nM; and `CCCN(C[C@@H](O)c1cccnc1)C(=O)Cc1ccc(C#N)nc1` [compound 39, 2-(6-cyano-3-pyridyl)-N-[(2S)-2-hydroxy-2-(3-pyridyl)ethyl]-N-propyl-acetamide], with above 1000 nM.
Take `CCCN(C[C@@H](O)c1cccnc1)C(=O)Cc1ccc2ncsc2c1` [compound 40, 2-(1,3-benzothiazol-6-yl)-N-[(2S)-2-hydroxy-2-(3-pyridyl)ethyl]-N-propyl-acetamide]: the IC50 lay in the range of 100 to 1000 nM.
Then `CC(C)(O)CN(CC(O)c1cccnc1)C(=O)Cc1ccc(Cl)c(Cl)c1` (centres unmarked) [compound 43, 2-(3,4-dichlorophenyl)-N-(2-hydroxy-2-methylpropyl)-N-[2-hydroxy-2-(3-pyridyl)ethyl]acetamide], with above 1000 nM; and `CCCN(C[C@@H](O)c1cccnc1)C(=O)Cc1cncc(Cl)c1` [compound 44, 2-(5-chloro-3-pyridyl)-N-[(2S)-2-hydroxy-2-(3-pyridyl)ethyl]-N-propyl-acetamide], with above 1000 nM; and `CCCN(C[C@@H](O)c1cccnc1)C(=O)Cc1ccc(OC(F)(F)F)cn1` [compound 45, N-[(2S)-2-hydroxy-2-(3-pyridyl)ethyl]-N-propyl-2-[5-(trifluoromethoxy)-2-pyridyl]acetamide], with at most 100 nM.
Then `CCCN(CC(O)c1cncc(Br)c1)C(=O)Cc1ccc(C(F)(F)F)nc1` (centres unmarked) [compound 46, N-[2-(5-bromo-3-pyridyl)-2-hydroxyethyl]-N-propyl-2-[6-(trifluoromethyl)-3-pyridyl]acetamide], with above 1000 nM; and `CCCN(C[C@@H](O)c1cccnc1)C(=O)Cc1ccc2scnc2c1` [compound 47, 2-(1,3-benzothiazol-5-yl)-N-[(2S)-2-hydroxy-2-(3-pyridyl)ethyl]-N-propyl-acetamide], with 100 to 1000 nM; and `CCCN(CC(O)c1cncc(C(C)=O)c1)C(=O)Cc1ccc(C(F)(F)F)nc1` (centres unmarked) [compound 48, N-[2-(5-acetyl-3-pyridyl)-2-hydroxy-ethyl]-N-propyl-2-[6-(trifluoromethyl)-3-pyridyl]acetamide], with above 1000 nM.
Then `CCC(=O)N(CCc1ccc(C(F)(F)F)nc1)CC(O)c1cccnn1` (centres unmarked) [compound 49], with above 1000 nM; and `CCCN(C[C@@H](O)c1cccnc1)C(=O)Cc1ccc(C(F)F)c(F)c1` [compound 50, 2-[4-(difluoromethyl)-3-fluoro-phenyl]-N-[(2S)-2-hydroxy-2-(3-pyridyl)ethyl]-N-propyl-acetamide], with at most 100 nM.
Take `COC(=O)N(CCc1ccc(C(F)(F)F)nc1)CC(O)c1cccnn1` (centres unmarked) [compound 51]: the IC50 is above 1000 nM.
For the compound `CCCN(CC(O)c1cccnn1)C(=O)Cc1ccc(C#N)c(Cl)c1` (centres unmarked) [compound 52, 2-(3-chloro-4-cyanophenyl)-N-(2-hydroxy-2-pyridazin-3-yl-ethyl)-N-propyl-acetamide], the IC50 was in the range of 100 to 1000 nM.
Then `CCCN(CC(O)c1cncc(C(C)(C)O)c1)C(=O)Cc1ccc(C(F)(F)F)nc1` (centres unmarked) [compound 55, N-[2-hydroxy-2-[5-(1-hydroxy-1-methyl-ethyl)-3-pyridyl]ethyl]-N-propyl-2-[6-(trifluoromethyl)-3-pyridyl]acetamide], with above 1000 nM; and `CC(=O)N1CCC(CN(C[C@@H](O)c2cccnc2)C(=O)Cc2ccc(C(F)(F)F)nc2)CC1` [compound 57, N-[(1-acetyl-4-piperidyl)methyl]-N-[(2S)-2-hydroxy-2-(3-pyridyl)ethyl]-2-[6-(trifluoromethyl)-3-pyridyl]acetamide], with above 1000 nM.
Then `CN1CCC(CN(C[C@@H](O)c2cccnc2)C(=O)Cc2ccc(C(F)(F)F)nc2)CC1` [compound 58, N-[(2S)-2-hydroxy-2-(3-pyridyl)ethyl]-N-[(1-methyl-4-piperidyl)methyl]-2-[6-(trifluoromethyl)-3-pyridyl]acetamide], with above 1000 nM; and `CCCN(C[C@@H](O)c1cccnc1)C(=O)Cc1cncc(C(F)(F)F)c1` [compound 59, N-[(2S)-2-hydroxy-2-(3-pyridyl)ethyl]-N-propyl-2-[5-(trifluoromethyl)-3-pyridyl]acetamide], with above 1000 nM.
Then `O=C(Cc1ccc(C(F)(F)F)nc1)N(CC(O)c1cccnn1)C1CCC1` (centres unmarked) [compound 60, N-cyclobutyl-N-(2-hydroxy-2-pyridazin-3-yl-ethyl)-2-[6-(trifluoromethyl)-3-pyridyl]acetamide], with 100 to 1000 nM; and `CCCN(CC(O)c1cccnc1)C(=O)Cc1ccc(Cl)c(C)n1` (centres unmarked) [compound 63, 2-(5-chloro-6-methyl-2-pyridyl)-N-[2-hydroxy-2-(3-pyridyl)ethyl]-N-propyl-acetamide], with above 1000 nM.
In the case of `O=C(Cc1ccc(C(F)(F)F)nc1)N(Cc1ccccc1)C[C@@H](O)c1cccnc1` [compound 64, (S)-N-benzyl-N-(2-hydroxy-2-(pyridin-3-yl)ethyl)-2-(6-(trifluoromethyl)pyridin-3-yl)acetamide], the IC50 is at most 100 nM.
Then `O=C(Cc1ccc(F)c(Cl)c1)N(CC1COC1)C[C@@H](O)c1cccnc1` [compound 65, 2-(3-chloro-4-fluoro-phenyl)-N-[(2S)-2-hydroxy-2-(3-pyridyl)ethyl]-N-(oxetan-3-ylmethyl)acetamide], with above 1000 nM; and `O=C(Cc1ccc(OC(F)(F)F)cn1)N(CC1COC1)C[C@@H](O)c1cccnc1` [compound 66, N-[(2S)-2-hydroxy-2-(3-pyridyl)ethyl]-N-(oxetan-3-ylmethyl)-2-[5-(trifluoromethoxy)-2-pyridyl]acetamide], with 100 to 1000 nM.
